Values of other authors in patent US20230035823A1, “ANTIHISTAMINE AND ANTI-MICROBIAL NASAL SOLUTIONS AND RELATED METHODS” (Xlear, Inc., priority 2021, published 2023).

What was measured:
[1] = regular consumption
[2] = test system: Streptococcus pneumonia; conditions: in vitro, during logarithmic growth phase
[3] = in vivo

## OC[C@@H](O)[C@H](O)[C@@H](O)CO [Xylitol, xylitol]
[1]
  incidence of dental caries: reduce the incidence of dental caries
[2]
  growth of Streptococcus pneumonia: inhibit the growth
[3]
  moisturizing nasal passages: very effective
